This note sets out measurements from ChEMBL document CHEMBL4673382, “Cyclin-Dependent Kinase Inhibitors in Cancer Therapeutics” (ACS Med Chem Lett, 2021).

Structures are written as SMILES.

Data set [1] deals with CDK9/cyclin T1 (Homo sapiens, UniProt P50750). Briefly: Inhibition of human full-length N-terminal GST-fused CDK9 (1 to 372 residues)/His-tagged Cyclin-T1 (1 to 726 residues) expressed in baculovirus expression system using PEP as substrate incubated for 17 mins in presence of ATP by TR-FRET assay. A general note: In TR-FRET formats the signal depends on donor and acceptor labels being close together.
CDK9/cyclin T1, sequence (O60563 whole entry, the tested form may be a part): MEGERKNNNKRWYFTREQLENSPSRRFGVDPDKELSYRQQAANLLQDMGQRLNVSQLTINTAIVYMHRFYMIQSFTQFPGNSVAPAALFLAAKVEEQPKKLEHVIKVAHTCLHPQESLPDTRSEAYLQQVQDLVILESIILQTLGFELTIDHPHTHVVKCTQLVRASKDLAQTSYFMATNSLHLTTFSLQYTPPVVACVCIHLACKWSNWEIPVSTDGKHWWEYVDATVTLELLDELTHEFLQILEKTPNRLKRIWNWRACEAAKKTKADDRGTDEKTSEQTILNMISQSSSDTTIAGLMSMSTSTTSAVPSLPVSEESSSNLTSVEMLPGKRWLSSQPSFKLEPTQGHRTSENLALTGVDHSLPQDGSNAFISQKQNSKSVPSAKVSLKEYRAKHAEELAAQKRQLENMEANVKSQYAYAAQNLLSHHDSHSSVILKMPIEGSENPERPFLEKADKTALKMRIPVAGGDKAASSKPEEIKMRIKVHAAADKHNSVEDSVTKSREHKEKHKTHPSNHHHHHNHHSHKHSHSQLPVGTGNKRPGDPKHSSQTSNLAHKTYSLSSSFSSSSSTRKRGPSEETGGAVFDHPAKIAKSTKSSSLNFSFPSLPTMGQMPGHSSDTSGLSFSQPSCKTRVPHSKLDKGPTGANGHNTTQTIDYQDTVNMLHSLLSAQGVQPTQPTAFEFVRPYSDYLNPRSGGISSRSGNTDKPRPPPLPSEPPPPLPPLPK
CDK9/cyclin T1, sequence (P50750 whole entry, the tested form may be a part): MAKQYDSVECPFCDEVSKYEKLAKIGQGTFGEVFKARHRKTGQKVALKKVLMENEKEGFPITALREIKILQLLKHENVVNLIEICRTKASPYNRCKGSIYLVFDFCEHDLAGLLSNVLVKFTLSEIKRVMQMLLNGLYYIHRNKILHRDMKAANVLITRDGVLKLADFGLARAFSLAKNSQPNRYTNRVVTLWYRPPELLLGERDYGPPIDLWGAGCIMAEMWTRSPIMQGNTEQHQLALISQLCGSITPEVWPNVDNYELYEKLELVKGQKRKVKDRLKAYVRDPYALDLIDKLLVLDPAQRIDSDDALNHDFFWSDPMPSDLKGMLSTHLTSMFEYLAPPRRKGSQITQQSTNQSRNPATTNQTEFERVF

Data set [2] deals with Cyclin-dependent kinase 4/cyclin D1 (Homo sapiens, UniProt P11802). Briefly: Inhibition of recombinant human full-length GST-tagged CDK4/cyclinD1 expressed in baculovirus expression system using PEP as substrate incubated for 3 mins in presence of ATP by TR-FRET assay.
Cyclin-dependent kinase 4/cyclin D1, sequence (P11802 whole entry): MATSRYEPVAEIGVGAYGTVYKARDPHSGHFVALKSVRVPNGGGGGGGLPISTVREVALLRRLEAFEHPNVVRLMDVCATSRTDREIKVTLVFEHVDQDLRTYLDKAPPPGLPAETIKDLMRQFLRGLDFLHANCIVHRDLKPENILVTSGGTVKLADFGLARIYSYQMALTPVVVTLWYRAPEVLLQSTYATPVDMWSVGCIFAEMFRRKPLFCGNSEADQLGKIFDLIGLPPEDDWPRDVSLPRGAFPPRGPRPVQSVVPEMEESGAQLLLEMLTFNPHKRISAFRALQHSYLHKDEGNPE
Cyclin-dependent kinase 4/cyclin D1, sequence (P24385 whole entry, further chain): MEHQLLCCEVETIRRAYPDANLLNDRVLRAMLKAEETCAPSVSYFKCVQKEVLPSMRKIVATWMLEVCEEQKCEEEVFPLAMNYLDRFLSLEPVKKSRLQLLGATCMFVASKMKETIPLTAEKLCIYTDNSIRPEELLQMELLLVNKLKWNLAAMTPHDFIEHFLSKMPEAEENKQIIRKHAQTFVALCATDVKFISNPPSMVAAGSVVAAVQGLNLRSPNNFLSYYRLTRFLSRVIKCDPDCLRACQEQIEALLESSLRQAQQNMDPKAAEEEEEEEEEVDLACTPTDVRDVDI
Data set [3] in a line: Oral bioavailability in rat at 100 mg/kg administered as single dose measured up to 48 hrs by LC-MS/MS analysis. To be noted: in vivo. The class given is ADME, organism-based.
Data set [4] in a line: Half life in rat at 100 mg/kg, po measured up to 48 hrs by LC-MS/MS analysis. The format is ADME, organism-based. Particulars: in vivo.
For data set [5], the target named is CDK6/cyclin D3 (Homo sapiens, UniProt Q00534). Briefly: Inhibition of human full-length N-terminal GST tagged CDK6 (1 to 326 residues)/cyclinD3 (1 to 292 residues) expressed in baculovirus expression system using PEP as substrate incubated for 3 mins in presence of ATP by TR-FRET assay.
CDK6/cyclin D3, sequence (P30281 whole entry, the tested form may be a part): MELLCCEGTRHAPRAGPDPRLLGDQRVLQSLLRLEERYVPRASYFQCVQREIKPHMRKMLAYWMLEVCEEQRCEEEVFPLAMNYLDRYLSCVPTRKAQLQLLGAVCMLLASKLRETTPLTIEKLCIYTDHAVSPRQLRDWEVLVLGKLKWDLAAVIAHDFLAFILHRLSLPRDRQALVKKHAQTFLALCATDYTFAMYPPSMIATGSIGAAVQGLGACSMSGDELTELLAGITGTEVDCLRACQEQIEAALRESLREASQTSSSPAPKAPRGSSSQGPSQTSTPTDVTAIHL
CDK6/cyclin D3, sequence (Q00534 whole entry, the tested form may be a part): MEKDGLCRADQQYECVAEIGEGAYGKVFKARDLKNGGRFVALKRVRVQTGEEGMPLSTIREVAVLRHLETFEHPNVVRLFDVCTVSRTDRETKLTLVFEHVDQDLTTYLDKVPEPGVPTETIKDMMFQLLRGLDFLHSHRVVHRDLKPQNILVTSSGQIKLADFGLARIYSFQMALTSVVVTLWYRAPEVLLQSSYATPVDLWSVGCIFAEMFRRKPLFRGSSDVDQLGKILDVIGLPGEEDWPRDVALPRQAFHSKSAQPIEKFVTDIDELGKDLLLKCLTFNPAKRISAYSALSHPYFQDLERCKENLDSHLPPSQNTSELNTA

The term IC50 denotes the concentration at which inhibition is half-maximal. Take `CC(C)N1CCN(c2ccc(Nc3ncc4c(n3)N(C3CCCC3)C3(CC(=O)NC3=O)C4)cc2)CC1` (stereo not given): the IC50 was found to be 70.7 nM in data set [1] and 28.4 nM in data set [2].
In general, bioavailability refers to the share of a dose that reaches the circulation, judged against a reference dose that is usually intravenous. Low readings indicate little systemic uptake, high ones much systemic uptake. A word on the half-life: it is how long it takes for the measured level to halve. Read a low half-life as rapid decline. Consider `CN1CCN(c2ccc(Nc3ncc4cc(C(=O)N(C)C)n(C56CC(C5)C6)c4n3)cc2)CC1`, for which the IC50 worked out at 7.08 nM in data set [1] and 3.81 nM in data set [2]. In data set [3], this compound had a bioavailability of 33.3%. This compound showed a half-life in data set [4] of 6 h.
As for `CN1CCN(c2ccc(Nc3ncc4c(n3)N(C3CCCC3)C3(CCNC3=O)C4)cc2F)CC1` (stereo not given), the IC50 in data set [5] turned out to be 258 nM; in data set [1] it was 46.6 nM; in data set [2] it was 51.7 nM.
`CN1CCN(C2CCN(c3ccc(Nc4ncc5cc(C(=O)N(C)C)n(C67CC(C6)C7)c5n4)cc3F)CC2)CC1`: the half-inhibitory concentration (IC50) in data set [1] was 7.55 nM; in data set [2] it was 3.78 nM.
In the case of `CN1CCN(c2ccc(Nc3ncc4c(n3)N(C3CCCC3)C3(CC(=O)NC3=O)C4)cc2)CC1` (stereo not given), the IC50 was determined as 80.5 nM in data set [1] and 25.7 nM in data set [2].
In the same order, the values of `CN(C)C(=O)c1cc2cnc(Nc3ccc(N4CCN(CCO)CC4)c(F)c3)nc2n1C12CC(C1)C2` are less than 3.2 nM and less than 3.2 nM.
Taken in the same sequence, the figures for `CC(=O)c1c(C)c2cnc(Nc3ccc(N4CC(C)NC(C)C4)cc3)nc2n(C2CCCC2)c1=O` (stereo not given) were 6.03 nM and less than 3.2 nM.
In the same order, the values of `CC(=O)c1c(C)c2cnc(Nc3ccc(N(C)CCN(C)C)cc3)nc2n(C23CC(C2)C3)c1=O` are 149 nM and 30 nM.
`CN1CCN(c2ccc(Nc3ncc4c(n3)N(C3CCCC3)C3(CC(=O)NC3=O)C4)cc2F)CC1` (stereo not given): the IC50 was 70.6 nM in data set [5], 23.4 nM in data set [1] and 14.4 nM in data set [2].
With `CN(C)C(=O)c1cc2cnc(Nc3ccc(N4CCNCC4)c(F)c3)nc2n1C12CC(C1)C2`, the values for the IC50 in data set [5], in data set [1] and in data set [2] were 10.1 nM, 6.18 nM and 4.13 nM, respectively.
In the same order, the values of `CC(=O)c1c(C)c2cnc(Nc3ccc(OCCN(C)C)c(F)c3)nc2n(C2CCCC2)c1=O` are 10.1 nM, 31.8 nM and 3 nM.
On to `CC(=O)c1c(C)c2cnc(Nc3ccc(N(C)CCN(C)C)cc3)nc2n(C2CCCC2)c1=O`, for which the IC50 in data set [1] is 7.13 nM; in data set [2], less than 3.2 nM.
